Experimental data reported in patent US4273771A, “Novel Δ^4,9 -gonadiene-21-ol-3,20-diones” (Roussel Uclaf, priority 1978, dated 1981).

Experiments:
immature female mice = experiment: antiestrogenic activity, uterus weight (method of Rubin and Dorfman et al); assay type: in vivo
Experimental: The estrogenic activity of the product A of Example 1 was also determined by the method of Rubin [Endocrinology, Vol. 49 (1951), p. 429] and Dorfman et al [Methods in Hormone Research, Vol. II (1962), p. 118] in which groups of 4 immature female mice 18 days old received once a day for 3 days a subcutaneous injection of estradiol only, only the test product or estradiol and the test product. In the last case, separate injections were used. The animals were killed on the 4th day and the uterus was removed, dissected and weighed. The test product was administered in a volume of 0.1 ml of sesame oil solution containing 5% of benzyl alcohol at a total dose of 0.27 μg of estradiol and the test compound was used at total doses of 0.3, 1.0, 3 and 10 μg.

[1] = target: T1, specific progesterone receptors (uterine cytosol) (Oryctolagus cuniculus, UniProt P06186); experiment: hormonal receptor method: displacement of tritiated Product R in rabbit uterine cytosol; assay type: binding; conditions: for ARL (relative affinity of the test product): progesterone = 100
T1 construct: the uterus was removed and homogenized in a buffered solution; from tissue; host or cells: uterus cytosol (105,000 g supernatant) of immature estradiol-treated rabbits
T1 sequence (P06186 1-930): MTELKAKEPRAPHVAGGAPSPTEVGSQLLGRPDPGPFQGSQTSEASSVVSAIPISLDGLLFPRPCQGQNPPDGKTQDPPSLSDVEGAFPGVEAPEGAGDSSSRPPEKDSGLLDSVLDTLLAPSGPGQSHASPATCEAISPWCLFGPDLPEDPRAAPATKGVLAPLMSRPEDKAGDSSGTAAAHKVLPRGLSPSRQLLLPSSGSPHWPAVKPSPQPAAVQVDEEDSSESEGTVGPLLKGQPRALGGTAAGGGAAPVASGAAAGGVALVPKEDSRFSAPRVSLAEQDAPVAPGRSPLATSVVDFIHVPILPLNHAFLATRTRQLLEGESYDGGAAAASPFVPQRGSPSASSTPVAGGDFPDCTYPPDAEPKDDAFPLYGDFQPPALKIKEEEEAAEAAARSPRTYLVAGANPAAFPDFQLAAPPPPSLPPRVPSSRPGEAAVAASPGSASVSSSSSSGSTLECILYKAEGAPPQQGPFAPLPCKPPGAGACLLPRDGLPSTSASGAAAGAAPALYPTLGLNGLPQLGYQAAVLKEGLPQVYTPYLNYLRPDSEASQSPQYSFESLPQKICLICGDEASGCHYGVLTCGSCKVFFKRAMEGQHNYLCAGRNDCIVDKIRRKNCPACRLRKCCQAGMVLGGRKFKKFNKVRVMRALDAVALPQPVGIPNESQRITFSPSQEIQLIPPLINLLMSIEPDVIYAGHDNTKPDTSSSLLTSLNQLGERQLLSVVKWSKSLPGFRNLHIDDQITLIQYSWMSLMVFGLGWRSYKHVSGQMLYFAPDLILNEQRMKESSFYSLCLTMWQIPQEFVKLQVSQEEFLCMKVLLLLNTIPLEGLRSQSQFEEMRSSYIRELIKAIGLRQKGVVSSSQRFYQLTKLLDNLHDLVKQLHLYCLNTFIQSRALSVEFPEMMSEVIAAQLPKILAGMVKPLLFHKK
Experimental: The progestomimetic activity was determined for the product A of Example 1 by the hormonal receptor method of Raynaud et al [J. Ster. Biochem., Vol. 6 (1975), p. 615-622 and Physiology and Genetics of Reproduction, 1975, Part A, p. 143-160]. Immature rabbits received 25 μg of estradiol percutaneously and were sacrificed after 5 days and the uterus was removed and homogenized in a buffered solution of 10 mM of tromethamine, 0.25 M of saccharose and a pH of 7.4 was kept with hydrochloric acid. The homogenate was centrifuged at 105,000 g per hour and the surnageant or cytosol was adjusted to a solution of 1/50 (weight/volume). […] The radioactivity of the tritiated product R was determined after 2 hours and after 24 hours by the technique of adsorption on carbondextran (1.25%-0.625%). The plots were the curves of the right parallel of the axis of abscisses of ordinate [formula] wherein Bo is the maximum amount of tied tritiated product R measured in the incubation containing only tritiated product R and Bmin is the minimum amount of tied tritiated product R (non-specific) measured in the incubation containing tritiated product R and a large excess of cold product R (2500×10^-9 M) and the curves representing the percentages of tied tritiated product R B/Bo as a logarithmatic function of the concentrations of added cold product R.
The intersections of these I50 straight lines and the curves permit the determination of the values: CP--concentration of cold progesterone which inhibits by 50% the fixation of the tritiated product R and CX--concentration of test product which inhibits by 50% the fixation of tritiated product R. The relative affinity of the test product (ARL) was determined by the formula [formula] and the results are reported in Table I

[2] = system: immature rabbits sensitized with estradiol; experiment: Clauberg test: proliferation of endometric lace; assay type: in vivo, rabbit; conditions: for MacPhail units: subcutaneous, 5 days
Experimental: The progestomimetic activity was also determined by the Clauberg test in which groups of 3 immature rabbits were previously sensitized by subcutaneous administration of estradiol for 5 days at a daily dose of 5 μg. Two days after the last treatment, the compound A of Example 1 in solution in sesame oil containing 5% of benzyl alcohol was subcutaneously administered daily for 5 days and the rabbits were killed on the 6th day. The uterus was removed and the proliferation of endometric lace which is characteristic of progestomimetic activity was determined in MacPhail units.

[3] = total dose 0.3 μg + estradiol 0.27 μg
[4] = total dose 1 μg + estradiol 0.27 μg
[5] = total dose 3 μg + estradiol 0.27 μg
[6] = total dose 10 μg + estradiol 0.27 μg

SMILES: CC(O)C(=O)C1(C)CCC2C3CCC4=CC(=O)CCC4=C3CCC21C (single isomer, unassigned) [Product A of Example 1, 17α-methyl-17β-(2-hydroxy-1-oxopropyl)-Δ^4,9-estradiene-3-one]
- antiestrogenic activity against estradiol (immature female mice; dose of 1 μg, result in words): clear antiestrogenic activity
- Average Weight of uterus (immature female mice; test product only, total dose 0.3 μg): 14.6 mg
- Average Weight of uterus (immature female mice; test product only, total dose 1 μg): 13.0 mg
- Average Weight of uterus (immature female mice; test product only, total dose 3 μg): 17.1 mg
- Average Weight of uterus (immature female mice; test product only, total dose 10 μg): 15.8 mg
- Average Weight of uterus (immature female mice; [3]): 80.5 mg
- change of average uterus weight versus estradiol only (immature female mice; [3]): -19%
- Average Weight of uterus (immature female mice; [4]): 59.6 mg
- change of average uterus weight versus estradiol only (immature female mice; [4]): -39%
- Average Weight of uterus (immature female mice; [5]): 38.5 mg
- change of average uterus weight versus estradiol only (immature female mice; [5]): -61%
- Average Weight of uterus (immature female mice; [6]): 39.6 mg
- change of average uterus weight versus estradiol only (immature female mice; [6]): -60%
- ARL (relative affinity of the test product) ([1]; 2 h incubation at 0° C.): 204
- ARL (relative affinity of the test product) ([1]; 24 h incubation at 0° C.): 688
- affinity for specific uterine reception of progesterone compared with progesterone ([1]; result in words): much greater affinity
- MacPhail units ([2]; 1 μg daily): 2.2 MacPhail units
- MacPhail units ([2]; 3 μg daily): 3.4 MacPhail units
- MacPhail units ([2]; 10 μg daily): 3.4 MacPhail units
- progestomimetic activity ([2]; result in words): very strong progestomimetic activity

SMILES: C[C@]12CC[C@@H]3c4ccc(O)cc4CC[C@H]3[C@@H]1CC[C@@H]2O [Estradiol, reference compound]
- Average Weight of uterus (immature female mice; estradiol only, total dose 0.27 μg, subcutaneous, 3 days): 99.3 mg
